In PubChem BioAssay (NCI):
Values joined by “and” are separate entries in the source; they are usually repeats but may differ in a detail not shown here. Equal entries are not always repeated.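 Tested at 5 concentrations; 48 h exposure; 96-well plates; endpoints linearly interpolated, else capped at highest concentration. Here, GI50 denotes the concentration required for 50% inhibition of growth. TGI: concentration producing complete growth inhibition.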

tested on: HOP-62 NSCLC; assay: inhibition of tumour cell growth, NCI panel, 48 h

Compound | TGI [µM]
CC1(n2nc(-c3ccccc3)n(-c3ccccc3)c2=O)CSC1 | > 100

tested on: UACC-62 melanoma; assay: inhibition of tumour cell growth, NCI panel, 48 h

Compound | GI50 | TGI [µM]
COc1cc(OC)c(/C=C/C(=O)c2c(OC)cccc2OC)c(OC)c1 | 0.362 µM | 3.06
COc1cc[nH]c1/C=C1\C(=O)Nc2ccccc21 | 8.58 µM | > 25
CC(=O)OC[C@]12CC[C@H]3[C@@H](C[C@H]4O[C@]45[C@@H](O)C=CC(=O)[C@]35C)[C@@H]1CC[C@@H]2[C@H](C)[C@H]1CC(C)=C(C)C(=O)O1 | 0.481 µM and 0.479 µM | 1.58
O=C(Nc1ccc(Cl)cc1)c1cc(-c2ccc(F)cc2)c2sc(=O)[nH]c2n1 | 0.366 µM | 2.32
Cc1cn2c(/C=C3/C(=O)N(C)c4ccccc43)c(C)nc2s1 | 12.2 µM | 97.9
Cc1nc2ccccc2c(=O)n1NC(=O)c1ccccn1 | – | > 100
Cc1ccc(C(=NN=C(N)N)c2ccc(C)cc2)cc1 | 0.902 µM | 6.04
CCS(=O)(=O)c1ccc(OC)c(Nc2ncc(-c3cccc(OC)c3)o2)c1 | 9.52 µM | > 25
CCCCN=C(N)c1ccc(OCCSCCOc2ccc(C(N)=NCCCC)cc2)cc1 | 6.12 µM | > 100
COC(=O)c1cccc2cccc(C(=O)Nc3ccc(C)cc3C)c12 | – | > 100
CC(C)c1ccc(C(=O)Nc2sc3c(c2C(N)=O)CCC(=O)C3)cc1 | 0.46 µM | 1.91
Cc1ccccc1N(CCC#N)C1=NN(C(=O)CC(=O)Nc2ccccc2)C(c2ccccc2)C1 (stereo not given) | – | > 100
CC1(n2nc(-c3ccccc3)n(-c3ccccc3)c2=O)CSC1 | – | > 100

tested on: HCT-116 colon; assay: inhibition of tumour cell growth, NCI panel, 48 h

Compound | GI50 | TGI
COc1cc(OC)c(/C=C/C(=O)c2c(OC)cccc2OC)c(OC)c1 | 0.394 µM | > 100 µM
COc1cc[nH]c1/C=C1\C(=O)Nc2ccccc21 | 5.66 µM | > 25 µM
CC(=O)OC[C@]12CC[C@H]3[C@@H](C[C@H]4O[C@]45[C@@H](O)C=CC(=O)[C@]35C)[C@@H]1CC[C@@H]2[C@H](C)[C@H]1CC(C)=C(C)C(=O)O1 | 0.277 µM and 0.166 µM | 0.6 µM and 0.424 µM
O=C(Nc1ccc(Cl)cc1)c1cc(-c2ccc(F)cc2)c2sc(=O)[nH]c2n1 | 1.43 µM | 2.96 µM
Cc1cn2c(/C=C3/C(=O)N(C)c4ccccc43)c(C)nc2s1 | 5.02 µM | > 100 µM
Cc1nc2ccccc2c(=O)n1NC(=O)c1ccccn1 | – | > 100 µM
Cc1ccc(C(=NN=C(N)N)c2ccc(C)cc2)cc1 | 0.372 µM | 4.48 µM
CCS(=O)(=O)c1ccc(OC)c(Nc2ncc(-c3cccc(OC)c3)o2)c1 | 8.1 µM | > 25 µM
CCCCN=C(N)c1ccc(OCCSCCOc2ccc(C(N)=NCCCC)cc2)cc1 | 4.46 µM | > 100 µM
COC(=O)c1cccc2cccc(C(=O)Nc3ccc(C)cc3C)c12 | – | > 100 µM
CC(C)c1ccc(C(=O)Nc2sc3c(c2C(N)=O)CCC(=O)C3)cc1 | 0.311 µM | 1.43 µM
Cc1ccccc1N(CCC#N)C1=NN(C(=O)CC(=O)Nc2ccccc2)C(c2ccccc2)C1 (stereo not given) | – | > 100 µM
CC1(n2nc(-c3ccccc3)n(-c3ccccc3)c2=O)CSC1 | – | > 100 µM

tested on: HOP-92 NSCLC; assay: inhibition of tumour cell growth, NCI panel, 48 h

Compound | GI50 | TGI
COc1cc(OC)c(/C=C/C(=O)c2c(OC)cccc2OC)c(OC)c1 | 0.222 µM | –
COc1cc[nH]c1/C=C1\C(=O)Nc2ccccc21 | 4.34 µM | > 21 µM
CC(=O)OC[C@]12CC[C@H]3[C@@H](C[C@H]4O[C@]45[C@@H](O)C=CC(=O)[C@]35C)[C@@H]1CC[C@@H]2[C@H](C)[C@H]1CC(C)=C(C)C(=O)O1 | 0.22 µM and 0.189 µM | 0.722 µM and 1.27 µM
O=C(Nc1ccc(Cl)cc1)c1cc(-c2ccc(F)cc2)c2sc(=O)[nH]c2n1 | 0.204 µM | 0.94 µM
Cc1cn2c(/C=C3/C(=O)N(C)c4ccccc43)c(C)nc2s1 | 31.9 µM | > 100 µM
Cc1nc2ccccc2c(=O)n1NC(=O)c1ccccn1 | – | > 100 µM
Cc1ccc(C(=NN=C(N)N)c2ccc(C)cc2)cc1 | 0.99 µM | 5.96 µM
CCS(=O)(=O)c1ccc(OC)c(Nc2ncc(-c3cccc(OC)c3)o2)c1 | 2.76 µM | 9.17 µM
CCCCN=C(N)c1ccc(OCCSCCOc2ccc(C(N)=NCCCC)cc2)cc1 | 1.44 µM | 14.6 µM
COC(=O)c1cccc2cccc(C(=O)Nc3ccc(C)cc3C)c12 | – | > 100 µM
CC(C)c1ccc(C(=O)Nc2sc3c(c2C(N)=O)CCC(=O)C3)cc1 | 1.29 µM | 3.67 µM
Cc1ccccc1N(CCC#N)C1=NN(C(=O)CC(=O)Nc2ccccc2)C(c2ccccc2)C1 (stereo not given) | – | > 100 µM
CC1(n2nc(-c3ccccc3)n(-c3ccccc3)c2=O)CSC1 | – | > 100 µM

tested on: A549 NSCLC; assay: inhibition of tumour cell growth, NCI panel, 48 h

Compound | GI50 | TGI [µM]
COc1cc(OC)c(/C=C/C(=O)c2c(OC)cccc2OC)c(OC)c1 | 0.907 µM | > 100
COc1cc[nH]c1/C=C1\C(=O)Nc2ccccc21 | 11.1 µM | > 25
CC(=O)OC[C@]12CC[C@H]3[C@@H](C[C@H]4O[C@]45[C@@H](O)C=CC(=O)[C@]35C)[C@@H]1CC[C@@H]2[C@H](C)[C@H]1CC(C)=C(C)C(=O)O1 | 0.822 µM and 1.04 µM | 3.2
O=C(Nc1ccc(Cl)cc1)c1cc(-c2ccc(F)cc2)c2sc(=O)[nH]c2n1 | 2.45 µM | 10.1
Cc1cn2c(/C=C3/C(=O)N(C)c4ccccc43)c(C)nc2s1 | 12.8 µM | > 100
Cc1nc2ccccc2c(=O)n1NC(=O)c1ccccn1 | – | > 100
Cc1ccc(C(=NN=C(N)N)c2ccc(C)cc2)cc1 | 0.451 µM | 7.09
CCS(=O)(=O)c1ccc(OC)c(Nc2ncc(-c3cccc(OC)c3)o2)c1 | 8.75 µM | > 25
CCCCN=C(N)c1ccc(OCCSCCOc2ccc(C(N)=NCCCC)cc2)cc1 | 4.47 µM | > 100
COC(=O)c1cccc2cccc(C(=O)Nc3ccc(C)cc3C)c12 | – | > 100
CC(C)c1ccc(C(=O)Nc2sc3c(c2C(N)=O)CCC(=O)C3)cc1 | 1.96 µM | 13.2
Cc1ccccc1N(CCC#N)C1=NN(C(=O)CC(=O)Nc2ccccc2)C(c2ccccc2)C1 (stereo not given) | – | > 100
CC1(n2nc(-c3ccccc3)n(-c3ccccc3)c2=O)CSC1 | – | > 100

tested on: KM12 colon; assay: inhibition of tumour cell growth, NCI panel, 48 h

Compound | GI50 | TGI [µM]
COc1cc(OC)c(/C=C/C(=O)c2c(OC)cccc2OC)c(OC)c1 | 0.59 µM | > 26
COc1cc[nH]c1/C=C1\C(=O)Nc2ccccc21 | 0.948 µM | > 25
CC(=O)OC[C@]12CC[C@H]3[C@@H](C[C@H]4O[C@]45[C@@H](O)C=CC(=O)[C@]35C)[C@@H]1CC[C@@H]2[C@H](C)[C@H]1CC(C)=C(C)C(=O)O1 | 0.467 µM and 0.349 µM | 1.11
O=C(Nc1ccc(Cl)cc1)c1cc(-c2ccc(F)cc2)c2sc(=O)[nH]c2n1 | 1.81 µM | 6.04
Cc1cn2c(/C=C3/C(=O)N(C)c4ccccc43)c(C)nc2s1 | 3.38 µM | > 100
Cc1nc2ccccc2c(=O)n1NC(=O)c1ccccn1 | – | > 100
Cc1ccc(C(=NN=C(N)N)c2ccc(C)cc2)cc1 | 0.327 µM | 1.33
CCS(=O)(=O)c1ccc(OC)c(Nc2ncc(-c3cccc(OC)c3)o2)c1 | 1.06 µM | > 25
CCCCN=C(N)c1ccc(OCCSCCOc2ccc(C(N)=NCCCC)cc2)cc1 | 3.62 µM | 19.9
COC(=O)c1cccc2cccc(C(=O)Nc3ccc(C)cc3C)c12 | – | > 100
CC(C)c1ccc(C(=O)Nc2sc3c(c2C(N)=O)CCC(=O)C3)cc1 | 0.45 µM | 1.85
Cc1ccccc1N(CCC#N)C1=NN(C(=O)CC(=O)Nc2ccccc2)C(c2ccccc2)C1 (stereo not given) | – | > 100
CC1(n2nc(-c3ccccc3)n(-c3ccccc3)c2=O)CSC1 | – | > 100
